Measurements: patent US7417156B2, “Orally active, antimalarial, anticancer, artemisinin-derived trioxane dimers” (Johns Hopkins University, priority 2002, dated 2008)

Legend:
OVCAR-8 = test: NCI 60 cell line panel screen (SRB); format: cell-based, human
SK-MEL-2 = test: NCI 60 cell line panel screen (SRB); format: cell-based, human
MCF7 = test: NCI 60 cell line panel screen (SRB); format: cell-based, human
MALME-3M = test: NCI 60 cell line panel screen (SRB); format: cell-based, human
M14 = test: NCI 60 cell line panel screen (SRB); format: cell-based, human
HOP-92 = test: NCI 60 cell line panel screen (SRB); format: cell-based, human
SNB-75 = test: NCI 60 cell line panel screen (SRB); format: cell-based, human
NCI-H23 = test: NCI 60 cell line panel screen (SRB); format: cell-based, human
HCT-15 = test: NCI 60 cell line panel screen (SRB); format: cell-based, human
CAKI-1 = test: NCI 60 cell line panel screen (SRB); format: cell-based, human
KM12 = test: NCI 60 cell line panel screen (SRB); format: cell-based, human
K-562 = test: NCI 60 cell line panel screen (SRB); format: cell-based, human
NCI/ADR-RES = test: NCI 60 cell line panel screen (SRB); format: cell-based, human
CCRF-CEM = test: NCI 60 cell line panel screen (SRB); format: cell-based, human
HCT-116 = test: NCI 60 cell line panel screen (SRB); format: cell-based, human
SF-268 = test: NCI 60 cell line panel screen (SRB); format: cell-based, human
OVCAR-3 = test: NCI 60 cell line panel screen (SRB); format: cell-based, human
COLO 205 = test: NCI 60 cell line panel screen (SRB); format: cell-based, human
SK-MEL-28 = test: NCI 60 cell line panel screen (SRB); format: cell-based, human
60 cell line panel = format: cell-based
PC-3 = test: NCI 60 cell line panel screen (SRB); format: cell-based, human
[1] = tested on: chloroquine-sensitive P. falciparum (NF54); test: Antimalarial activity in vitro, [3H]hypoxanthine incorporation; format: cell-based; details: Table I; NF54 strain; read-out: IC50
U251 = test: NCI 60 cell line panel screen (SRB); format: cell-based, human
RXF 393 = test: NCI 60 cell line panel screen (SRB); format: cell-based, human
HL-60(TB) = test: NCI 60 cell line panel screen (SRB); format: cell-based, human
NCI-H460 = test: NCI 60 cell line panel screen (SRB); format: cell-based, human
[2] = mean value over the 60 cell line panel

With `C[C@@H]1CC[C@H]2[C@@H](C)C(CC(O)(CC3OC4O[C@]5(C)CC[C@H]6[C@H](C)CC[C@@H]([C@H]3C)C46OO5)c3ccc(C(=O)O)cc3)OC3O[C@]4(C)CCC1C32OO4` (some centres unmarked) [Compound 11b, bis-trioxane tertiary alcohol benzoic acid] the Log10LC50 (OVCAR-8; OVCAR-8 (Ovarian Cancer), LC50: PG=−50) was >−4.30 log10M, the Log10TGI50 (OVCAR-8; OVCAR-8 (Ovarian Cancer), TGI: PG=0) was >−4.30 log10M and the Log10GI50 (OVCAR-8; Ovarian Cancer, OVCAR-8) was −5.26. The Log10GI50 (SK-MEL-2; Melanoma, SK-MEL-2) was −6.43, the Log10LC50 (SK-MEL-2; SK-MEL2 (Melanoma), LC50: PG=−50) was >−4.30 log10M and the Log10TGI50 (SK-MEL-2; SK-MEL-2 (Melanoma), TGI: PG=0) was >−4.30 log10M. For the same molecule, the Log10GI50 (MCF7; Breast Cancer, MCF7) was <−8.30, the Log10LC50 (MCF7; MCF7 (Breast Cancer), LC50: PG=−50) was >−4.30 log10M and the Log10TGI50 (MCF7; MCF7 (Breast Cancer), TGI: PG=0) was >−4.30 log10M. For the same molecule, the Log10LC50 (MALME-3M; MALME-3M (Melanoma), LC50: PG=−50) was >−4.30 log10M, the Log10TGI50 (MALME-3M; MALME-3M (Melanoma), TGI: PG=0) was −7.46 log10M and the Log10GI50 (MALME-3M; Melanoma, MALME-3M) was <−8.30. For the same molecule, the Log10LC50 (M14; M14 (Melanoma), LC50: PG=−50) was >−4.30 log10M, the Log10TGI50 (M14; M-14 (Melanoma), TGI: PG=0) was >−4.30 log10M and the Log10GI50 (M14; Melanoma, M14) was −7.81. For the same molecule, the Log10LC50 (HOP-92; HOP-92 (Non-Small Cell Lung Cancer), LC50: PG=−50) was >−4.30 log10M, the Log10TGI50 (HOP-92; HOP-92 (Non-Small Cell Lung Cancer), TGI: PG=0) was >−4.30 log10M and the Log10GI50 (HOP-92; Non-Small Cell Lung Cancer, HOP-92) was −7.43. The Log10GI50 (SNB-75; CNS Cancer, SNB-75) was −7.40, the Log10LC50 (SNB-75; SNB-75 (CNS Cancer), LC50: PG=−50) was >−4.30 log10M and the Log10TGI50 (SNB-75; SNB-75 (CNS Cancer), TGI: PG=0) was >−4.30 log10M. For the same molecule, the Log10LC50 (NCI-H23; NCI-H23 (Non-Small Cell Lung Cancer), LC50: PG=−50) was >−4.30 log10M, the Log10TGI50 (NCI-H23; NCI-H23 (Non-Small Cell Lung Cancer), TGI: PG=0) was −4.63 log10M and the Log10GI50 (NCI-H23; Non-Small Cell Lung Cancer, NCI-H23) was −8.19. For the same molecule, the Log10GI50 (HCT-15; Colon Cancer, HCT-15) was <−8.30, the Log10LC50 (HCT-15; HCT-15 (Colon Cancer), LC50: PG=−50) was >−4.30 log10M and the Log10TGI50 (HCT-15; HCT-15 (Colon Cancer), TGI: PG=0) was −6.70 log10M. For the same molecule, the Log10LC50 (CAKI-1; CAKI-1 (Renal Cancer), LC50: PG=−50) was −4.44 log10M, the Log10TGI50 (CAKI-1; CAKI-1 (Renal Cancer), TGI: PG=0) was −6.91 log10M and the Log10GI50 (CAKI-1; Renal Cancer, CAKI-1) was −7.74. For the same molecule, the Log10GI50 (KM12; Colon Cancer, KM12) was <−8.30, the Log10LC50 (KM12; KM12 (Colon Cancer), LC50: PG=−50) was −5.95 log10M and the Log10TGI50 (KM12; KM12 (Colon Cancer), TGI: PG=0) was <−8.30 log10M. For the same molecule, the Log10LC50 (K-562; K-562 (Leukemia), LC50: PG=−50) was >−4.30 log10M, the Log10TGI50 (K-562; K-562 (Leukemia), TGI: PG=0) was >−4.30 log10M and the Log10GI50 (K-562; Leukemia, K-562) was <−8.30. The Log10GI50 (NCI/ADR-RES; Breast Cancer, NCI/ADR-RES) was −6.84, the Log10LC50 (NCI/ADR-RES; NCI/ADR-RES (Breast Cancer), LC50: PG=−50) was >−4.30 log10M and the Log10TGI50 (NCI/ADR-RES; NCI/ADR-RES (Breast Cancer), TGI: PG=0) was >−4.30 log10M. For the same molecule, the Log10LC50 (CCRF-CEM; CCRF-CEM (Leukemia), LC50: PG=−50) was >−4.30 log10M, the Log10TGI50 (CCRF-CEM; CCRF-CEM (Leukemia), TGI: PG=0) was >−4.30 log10M and the Log10GI50 (CCRF-CEM; Leukemia, CCRF-CEM) was −8.07. For the same molecule, the Log10GI50 (HCT-116; Colon Cancer, HCT-116) was <−8.30, the Log10LC50 (HCT-116; HCT-116 (Colon Cancer), LC50: PG=−50) was >−4.30 log10M and the Log10TGI50 (HCT-116; HCT-116 (Colon Cancer), TGI: PG=0) was −4.40 log10M. For the same molecule, the Log10GI50 (SF-268; CNS Cancer, SF-268) was −7.72, the Log10LC50 (SF-268; SF-268 (CNS Cancer), LC50: PG=−50) was >−4.30 log10M and the Log10TGI50 (SF-268; SF-268 (CNS Cancer), TGI: PG=0) was >−4.30 log10M. The Log10LC50 (OVCAR-3; OVCAR-3 (Ovarian Cancer), LC50: PG=−50) was >−4.30 log10M, the Log10TGI50 (OVCAR-3; OVCAR-3 (Ovarian Cancer), TGI: PG=0) was −8.07 log10M and the Log10GI50 (OVCAR-3; Ovarian Cancer, OVCAR-3) was <−8.30. For the same molecule, the Log10LC50 (COLO 205; COLO 205 (Colon Cancer), LC50: PG=−50) was −5.28 log10M, the Log10TGI50 (COLO 205; COLO 205 (Colon Cancer), TGI: PG=0) was −6.99 log10M and the Log10GI50 (COLO 205; Colon Cancer, COLO 205) was <−8.30. The Log10GI50 (SK-MEL-28; Melanoma, SK-MEL-28) was −6.40, the Log10LC50 (SK-MEL-28; SK-MEL-28 (Melanoma), LC50: PG=−50) was >−4.30 log10M and the Log10TGI50 (SK-MEL-28; SK-MEL-28 (Melanoma), TGI: PG=0) was >−4.30 log10M. The “Log10GI50 Delta” value (60 cell line panel) was 0.93, the “Log10GI50 Range” value (60 cell line panel) was 3.52 and the “Log10LC50 Delta” value (60 cell line panel; 60 cell line panel) was 1.58. For the same molecule, the “Log10LC50 Range” value (60 cell line panel; 60 cell line panel) was 1.65, the “Log10TGI50 Delta” value (60 cell line panel; 60 cell line panel) was 3.18 and the “Log10TGI50 Range” value (60 cell line panel; 60 cell line panel) was 4.00. The “growth inhibition in words” value (60 cell line panel; colon cancer KM12, ovarian cancer OVCAR 3, breast cancer MDA-MB-435) was “selectively and strong inhibitory”, the “Log10GI50 MG MID” value (60 cell line panel; mean over panel) was −7.37 and the “Log10LC50 MG MID” value (60 cell line panel; [2]) was −4.37 log10M. The “Log10TGI50 MG MID” value (60 cell line panel; [2]) was −5.12 log10M, the Log10LC50 (PC-3; PC-3 (Prostate Cancer), LC50: PG=−50) was >−4.30 log10M and the Log10TGI50 (PC-3; PC-3 (Prostate Cancer), TGI: PG=0) was −5.75 log10M. For the same molecule, the Log10GI50 (PC-3; Prostate Cancer, PC-3) was <−8.30, the IC50 [1] was 2.1 nM and the Log10GI50 (U251; CNS Cancer, U251) was <−8.30. The Log10LC50 (U251; U251 (CNS Cancer), LC50: PG=−50) was >−4.30 log10M, the Log10TGI50 (U251; U251 (CNS Cancer), TGI: PG=0) was −7.39 log10M and the Log10LC50 (RXF 393; RXF 393 (Renal Cancer), LC50: PG=−50) was >−4.30 log10M. The Log10TGI50 (RXF 393; RXF 393 (Renal Cancer), TGI: PG=0) was −7.60 log10M, the Log10GI50 (RXF 393; Renal Cancer, RXF 393) was <−8.30 and the Log10LC50 (HL-60(TB); HL-60(TB) (Leukemia), LC50: PG=−50) was −4.55 log10M. For the same molecule, the Log10TGI50 (HL-60(TB); HL-60(TB) (Leukemia), TGI: PG=0) was −8.11 log10M, the Log10GI50 (HL-60(TB); Leukemia, HL-60(TB)) was <−8.30 and the Log10LC50 (NCI-H460; NCI-H460 (Non-Small Cell Lung Cancer), LC50: PG=−50) was >−4.30 log10M. The Log10TGI50 (NCI-H460; NCI-H460 (Non-Small Cell Lung Cancer), TGI: PG=0) was >−4.30 log10M and the Log10GI50 (NCI-H460; Non-Small Cell Lung Cancer, NCI-H460) was <−8.30.
